# In publication PMC5293596 (Chemical research in toxicology, 2016):
# Columns and labels:
# P450 2A13 [1] = target: T1, P450 2A13 (Homo sapiens, UniProt Q16696); test: Oxidation by P450 2A13 bicistronic membranes, HPLC; details: for metabolism (HPLC): product peaks only with NADPH-generating system; for Formation of oxygenated products on LC-MS analysis: results not shown
# T1 sequence (Q16696 1-494): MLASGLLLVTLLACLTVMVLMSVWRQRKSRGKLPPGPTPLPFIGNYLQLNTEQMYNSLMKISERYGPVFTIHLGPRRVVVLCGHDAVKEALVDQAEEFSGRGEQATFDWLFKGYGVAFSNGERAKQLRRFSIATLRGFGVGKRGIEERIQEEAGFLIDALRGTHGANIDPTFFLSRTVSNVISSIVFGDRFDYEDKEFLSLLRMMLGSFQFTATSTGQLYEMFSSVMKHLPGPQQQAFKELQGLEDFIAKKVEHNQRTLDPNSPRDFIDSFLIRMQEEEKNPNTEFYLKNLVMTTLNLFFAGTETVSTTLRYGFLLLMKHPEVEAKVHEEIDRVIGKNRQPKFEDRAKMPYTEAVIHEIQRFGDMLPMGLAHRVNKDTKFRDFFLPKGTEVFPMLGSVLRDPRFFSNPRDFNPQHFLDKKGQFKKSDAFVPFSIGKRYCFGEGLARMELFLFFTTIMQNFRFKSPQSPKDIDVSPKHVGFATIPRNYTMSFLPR
# P450 2A13 [2] = test: Spectral binding titration; set-up: species or system human; details: P450 2A13 vs P450 2A6
# P450 2A6 [3] = target: T2, P450 2A6 (Homo sapiens, UniProt P11509); test: Oxidation by P450 2A6 bicistronic membranes, HPLC; details: product peaks only with NADPH-generating system
# T2 sequence (P11509 1-494): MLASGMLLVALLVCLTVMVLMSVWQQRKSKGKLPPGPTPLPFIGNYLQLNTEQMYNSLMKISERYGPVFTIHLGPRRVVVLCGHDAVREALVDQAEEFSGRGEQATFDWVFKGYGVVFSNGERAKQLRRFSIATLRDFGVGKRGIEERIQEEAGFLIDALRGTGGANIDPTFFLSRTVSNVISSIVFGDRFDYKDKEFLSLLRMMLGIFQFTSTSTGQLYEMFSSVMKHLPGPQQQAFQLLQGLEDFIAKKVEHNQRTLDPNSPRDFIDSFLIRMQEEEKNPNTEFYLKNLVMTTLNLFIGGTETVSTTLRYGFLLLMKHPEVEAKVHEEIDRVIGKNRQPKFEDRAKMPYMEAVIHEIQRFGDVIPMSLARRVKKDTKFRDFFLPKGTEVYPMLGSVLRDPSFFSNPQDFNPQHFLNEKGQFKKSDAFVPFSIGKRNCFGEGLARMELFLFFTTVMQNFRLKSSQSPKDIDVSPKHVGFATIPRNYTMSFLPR
# P450 1A2 [4] = target: T3, P450 1A2 (Homo sapiens, UniProt P05177); test: Oxidation by P450 1A2 bicistronic membranes, HPLC; details: Figure 5
# T3 sequence (P05177 1-516): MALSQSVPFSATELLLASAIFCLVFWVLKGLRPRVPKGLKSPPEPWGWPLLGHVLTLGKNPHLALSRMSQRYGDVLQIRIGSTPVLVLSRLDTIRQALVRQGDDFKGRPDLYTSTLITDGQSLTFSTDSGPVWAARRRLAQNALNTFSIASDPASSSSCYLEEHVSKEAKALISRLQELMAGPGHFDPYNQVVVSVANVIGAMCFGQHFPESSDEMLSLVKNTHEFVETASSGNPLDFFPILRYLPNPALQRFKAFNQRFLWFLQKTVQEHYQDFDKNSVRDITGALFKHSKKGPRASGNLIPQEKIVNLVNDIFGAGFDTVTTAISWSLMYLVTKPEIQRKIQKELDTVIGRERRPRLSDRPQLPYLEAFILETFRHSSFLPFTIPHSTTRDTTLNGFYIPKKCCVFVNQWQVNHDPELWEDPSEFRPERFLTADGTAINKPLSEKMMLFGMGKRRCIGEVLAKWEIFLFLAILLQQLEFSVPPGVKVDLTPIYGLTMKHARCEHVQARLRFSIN
# P450 1B1 (1B1.3, L432V) = target: T4, P450 1B1 (1B1.3, L432V) (Homo sapiens, UniProt Q16678, L432V); test: Oxidation by P450 1B1 bicistronic membranes, HPLC; details: P450 1B1.3; Figure 5
# T4 sequence (Q16678 1-543 L432V): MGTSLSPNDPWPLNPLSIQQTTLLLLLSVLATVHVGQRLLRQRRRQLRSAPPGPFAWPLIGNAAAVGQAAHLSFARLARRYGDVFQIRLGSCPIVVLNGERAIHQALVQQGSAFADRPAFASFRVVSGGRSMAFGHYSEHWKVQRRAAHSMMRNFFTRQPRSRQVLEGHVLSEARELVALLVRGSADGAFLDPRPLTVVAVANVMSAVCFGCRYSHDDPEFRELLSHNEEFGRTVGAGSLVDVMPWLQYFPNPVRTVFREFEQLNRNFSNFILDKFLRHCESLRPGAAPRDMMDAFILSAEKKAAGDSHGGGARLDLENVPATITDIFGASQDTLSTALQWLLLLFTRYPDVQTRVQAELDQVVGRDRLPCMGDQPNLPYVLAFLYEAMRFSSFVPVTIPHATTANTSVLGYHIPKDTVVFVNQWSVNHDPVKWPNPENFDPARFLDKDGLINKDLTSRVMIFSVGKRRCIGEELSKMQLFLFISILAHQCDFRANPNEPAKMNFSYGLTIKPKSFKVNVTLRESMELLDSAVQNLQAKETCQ
# P450 2A6 [5] = target: T2, P450 2A6; test: Spectral binding titration; details: P450 2A6 1.0 μM, pH 7.4; means and S.E.
# P450 1A1 = target: T5, P450 1A1 (Homo sapiens, UniProt P04798); test: 7-Ethoxyresorufin O-deethylation by P450 1A1
# T5 sequence (P04798 1-512): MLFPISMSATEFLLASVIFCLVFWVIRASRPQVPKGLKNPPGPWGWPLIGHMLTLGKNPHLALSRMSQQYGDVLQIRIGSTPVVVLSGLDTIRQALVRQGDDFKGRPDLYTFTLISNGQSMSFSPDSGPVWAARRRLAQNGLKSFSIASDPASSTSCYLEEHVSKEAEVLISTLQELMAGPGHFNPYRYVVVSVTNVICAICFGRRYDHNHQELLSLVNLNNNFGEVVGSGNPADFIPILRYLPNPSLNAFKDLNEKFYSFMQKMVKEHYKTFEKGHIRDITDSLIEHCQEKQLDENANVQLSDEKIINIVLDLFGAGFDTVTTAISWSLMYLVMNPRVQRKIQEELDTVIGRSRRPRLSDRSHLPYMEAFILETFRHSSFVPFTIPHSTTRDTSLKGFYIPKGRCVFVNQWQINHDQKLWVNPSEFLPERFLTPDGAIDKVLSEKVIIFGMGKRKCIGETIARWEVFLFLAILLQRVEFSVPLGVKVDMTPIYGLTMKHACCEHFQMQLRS
# P450 1A2 [6] = target: T3, P450 1A2; test: 7-Ethoxyresorufin O-deethylation by P450 1A2
# P450 1B1 = target: T6, P450 1B1 (Homo sapiens, UniProt Q16678, L432V); test: 7-Ethoxyresorufin O-deethylation by P450 1B1
# T6 sequence (Q16678 1-543 L432V): T4 sequence (Q16678 1-543 L432V)
# P450 2A13 [7] = target: T1, P450 2A13; test: Spectral binding titration; details: P450 2A13
smiles,measurement,setting,value
"C#CCOCc1ccccc1-c1ccccc1 [2BMPE, 2-biphenyl methyl propargyl ether]",metabolism (HPLC),P450 2A13 [1],not detected
"C#CCOc1ccccc1-c1ccccc1 [2BPE, 2-biphenyl propargyl ether]",metabolism (HPLC),P450 2A13 [1],yes
"C#Cc1ccc2ccccc2c1 [2EN, 2-ethynylnaphthalene]",metabolism (HPLC),P450 2A13 [1],yes
same,ΔAmax/Ks ratio with P450 2A13 relative to that with P450 2A6,P450 2A13 [2],about 10 fold
same,metabolism (HPLC),P450 2A6 [3],yes
"C#Cc1ccc2c(ccc3ccccc32)c1 [2EPh, 2-ethynylphenanthrene]",metabolism (HPLC),P450 2A13 [1],yes
same,Formation of oxygenated products on LC-MS analysis,P450 2A13 [1],formation of oxygenated products
same,Oxidation (product formation on HPLC),P450 1A2 [4],oxidized 2EPh at lower levels than P450s 2A13 and 2A6
same,metabolism (HPLC),P450 2A6 [3],yes
same,Oxidation (product formation on HPLC),"P450 1B1 (1B1.3, L432V)",oxidized 2EPh at lower levels than P450s 2A13 and 2A6
"CC#Cc1ccc2c(ccc3ccccc32)c1 [2PPh, 2-(1-propynyl)phenanthrene]",metabolism (HPLC),P450 2A13 [1],yes
same,metabolism (HPLC),P450 2A6 [3],yes
"C#Cc1ccc2ccc3ccccc3c2c1 [3EPh, 3-ethynylphenanthrene]",metabolism (HPLC),P450 2A13 [1],yes
same,Formation of oxygenated products on LC-MS analysis,P450 2A13 [1],formation of oxygenated products
same,metabolism (HPLC),P450 2A6 [3],yes
"CC#Cc1ccc2ccc3ccccc3c2c1 [3PPh, 3-(1-propynyl)phenanthrene]",metabolism (HPLC),P450 2A13 [1],yes
same,Type I spectra Ks (spectral dissociation constant),P450 2A6 [5],ND (10 μM)
"C#CCOCc1ccc(-c2ccccc2)cc1 [4BMPE, 4-biphenyl methyl propargyl ether]",metabolism (HPLC),P450 2A13 [1],not detected
"C#CCOc1ccc(-c2ccccc2)cc1 [4BPE, 4-biphenyl propargyl ether]",metabolism (HPLC),P450 2A13 [1],yes
same,metabolism (HPLC),P450 2A6 [3],yes
"CCC#Cc1ccc(-c2ccccc2)cc1 [4BuB, 4-butynylbiphenyl]",metabolism (HPLC),P450 2A13 [1],not detected
"C#Cc1ccc(-c2ccccc2)cc1 [4EB, 4-ethynylbiphenyl]",metabolism (HPLC),P450 2A13 [1],not detected
same,metabolism (HPLC),P450 2A6 [3],not detected
"CC#Cc1ccc(-c2ccccc2)cc1 [4PB, 4-propynylbiphenyl]",metabolism (HPLC),P450 2A13 [1],not detected
CCOc1ccc2nc3ccc(=O)cc-3oc2c1 [7-ethoxyresorufin],"Catalytic activity, 7-ethoxyresorufin O-deethylation (nmol product formed/min/nmol P450)",P450 1A1,35 min⁻¹
same,"Catalytic activity, 7-ethoxyresorufin O-deethylation (nmol product formed/min/nmol P450)",P450 1A2 [6],3.2 min⁻¹
same,"Catalytic activity, 7-ethoxyresorufin O-deethylation (nmol product formed/min/nmol P450)",P450 1B1,14 min⁻¹
"C#Cc1cc2ccccc2c2ccccc12 [9EPh, 9-ethynylphenanthrene]",metabolism (HPLC),P450 2A13 [1],not detected
same,Type I spectra Ks (spectral dissociation constant),P450 2A6 [5],ND (10 μM)
"CC#Cc1cc2ccccc2c2ccccc12 [9PPh, 9-(1-propynyl)phenanthrene]",metabolism (HPLC),P450 2A13 [1],not detected
"C#CCOc1ccccc1-c1ccccc1OCC#C [22BDPE, 2,2′-biphenyl dipropagyl ether]",metabolism (HPLC),P450 2A13 [1],not detected
"C#CCOc1ccc(-c2ccc(OCC#C)cc2)cc1 [44BDPE, 4,4′-biphenyl dipropargyl ether]",metabolism (HPLC),P450 2A13 [1],not detected
same,metabolism (HPLC),P450 2A6 [3],not detected
c1ccc(-c2ccccc2)cc1 [biphenyl],metabolism (HPLC),P450 2A13 [1],yes
same,ΔAmax of Type I binding spectral change,P450 2A13 [7],0.045
same,metabolism (HPLC),P450 2A6 [3],yes
c1ccc2c(c1)ccc1ccccc12 [phenanthrene],metabolism (HPLC),P450 2A13 [1],yes
same,ΔAmax of Type I binding spectral change,P450 2A13 [7],0.063
same,metabolism (HPLC),P450 2A6 [3],yes
